We go through 21 compounds from patent publication US8106055B2, “Substituted amide compounds” (Gruenenthal GmbH, priority 2007, dated 2012).

Read-outs that look alike come from different tables or passages of the source.

Experiment [1] deals with T1, bradykinin 1 receptor (B1R) of the rat (Rattus norvegicus, UniProt P97583).
T1 construct: expressed in transfected cells; host or cells: CHO K1 cells
T1 sequence (P97583 1-337): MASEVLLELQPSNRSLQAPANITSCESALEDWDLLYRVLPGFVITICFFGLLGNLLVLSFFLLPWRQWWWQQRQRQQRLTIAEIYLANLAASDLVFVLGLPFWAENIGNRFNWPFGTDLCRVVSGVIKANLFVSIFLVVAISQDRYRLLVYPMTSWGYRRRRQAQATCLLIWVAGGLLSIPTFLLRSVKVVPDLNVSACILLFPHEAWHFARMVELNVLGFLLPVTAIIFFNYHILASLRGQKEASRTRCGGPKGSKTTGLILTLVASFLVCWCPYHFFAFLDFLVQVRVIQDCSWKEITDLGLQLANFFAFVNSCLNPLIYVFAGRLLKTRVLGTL
In words: Functional investigation on the rat bradykinin 1 receptor (B1R), Ca2+ FLIPR assay in CHO K1 rB1R cells. It counts as cell-based. Put shortly: (§1)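 Peak Ca2+-dependent fluorescence in B1R-transfected CHO K1 cells measures antagonism of an EC80 agonist challenge given 10-20 min after compound. Agonist is Lys-Des-Arg9-bradykinin for human, Des-Arg9-bradykinin for rat receptor.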

The target of experiment [2] is T2, human bradykinin 1 receptor (B1R) (Homo sapiens, UniProt P46663).
T2 construct: expressed in transfected cells; host or cells: CHO K1 cells
T2 sequence (P46663 1-353): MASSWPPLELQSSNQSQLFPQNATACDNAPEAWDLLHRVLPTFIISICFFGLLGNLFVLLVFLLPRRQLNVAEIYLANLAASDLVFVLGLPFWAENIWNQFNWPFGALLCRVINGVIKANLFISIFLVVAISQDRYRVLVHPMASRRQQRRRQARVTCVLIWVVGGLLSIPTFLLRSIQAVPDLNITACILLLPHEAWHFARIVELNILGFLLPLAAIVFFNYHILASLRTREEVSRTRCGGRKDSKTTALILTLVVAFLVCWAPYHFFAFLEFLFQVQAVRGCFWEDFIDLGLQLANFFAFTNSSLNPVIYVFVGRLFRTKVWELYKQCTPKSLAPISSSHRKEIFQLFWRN
Description: Functional investigation on the human bradykinin 1 receptor (B1R), Ca2+ FLIPR assay in CHO K1 hB1R cells. It counts as cell-based. In short, it runs like this: as §1

Setting [3] is: CHO-K1, B1R antagonism rat, test substance 10 μM, Ca2+ FLIPR, CHO K1 rB1R cells, read-out: B1R Ant. r [10 μM] % Inhibition.
Where [4] appears, read: CHO-K1, B1R antagonism human, test substance 10 μM, Ca2+ FLIPR, CHO K1 hB1R cells, read-out: B1R Ant. h [10 μM] % Inhibition.

For `COc1cc(C)c(S(=O)(=O)N2CCC(OCC(=O)NC3CCC(C(c4cccs4)N(C)C)CC3)CC2)c(C)c1C` (stereo not drawn) [Example 1, N-(4-((dimethylamino)(thiophen-2-yl)methyl)cyclohexyl)-2-(1-(4-methoxy-2,3,6-trimethylphenylsulfonyl)piperidin-4-yloxy)acetamide], the inhibition at 10 µM in experiment [1] (setting [3]) was -5%; in experiment [2] (setting [4]), 46%.
For `Cc1ccc(S(=O)(=O)N(C)CCOCC(=O)NCC2CCC(C(c3cccs3)N(C)C)CC2)cc1` (stereo not drawn) [Example 4, N-((4-((dimethylamino)(thiophen-2-yl)methyl)cyclohexyl)methyl)-2-(2-(N,4-dimethylphenylsulfonamido)ethoxy)acetamide] the same measures were 18% and 2%.
With `COc1cc(C)c(S(=O)(=O)N2CCC(CCOCC(=O)NC3CCC(C(c4cccs4)N(C)C)CC3)CC2)c(C)c1C` (stereo not drawn) [Example 5, N-(4-((dimethylamino)(thiophen-2-yl)methyl)cyclohexyl)-2-(2-(1-(4-methoxy-2,3,6-trimethylphenylsulfonyl)piperidin-4-yl)ethoxy)acetamide], the inhibition at 10 µM in experiment [1] (setting [3]) was -3%; in experiment [2] (setting [4]) it was 24%.
For `CN(C)C(c1ccccc1)C1CCC(NC(=O)COCCN(C)S(=O)(=O)c2c(Cl)cc(Cl)cc2Cl)CC1` (stereo not drawn) [Example 34, N-(4-((dimethylamino)(phenyl)methyl)cyclohexyl)-2-(2-(2,4,6-trichloro-N-methylphenylsulfonamido)ethoxy)acetamide] the same measures were 24% and 102%.
In the case of `COc1cc(C)c(S(=O)(=O)N(C)CCOCC(=O)NCC2CCC(C(c3cccs3)N(C)C)CC2)c(C)c1C` (stereo not drawn) [Example 35, N-((4-((dimethylamino)(thiophen-2-yl)methyl)cyclohexyl)methyl)-2-(2-(4-methoxy-N,2,3,6-tetramethylphenylsulfonamido)ethoxy)acetamide], the inhibition at 10 µM worked out at 0% in experiment [1] (setting [3]) and 50% in experiment [2] (setting [4]).
With `CN(C)C(c1cccs1)C1CCC(CNC(=O)COC2CCN(S(=O)(=O)c3ccccc3)C2)CC1` (stereo not drawn) [Example 36, N-((4-((dimethylamino)(thiophen-2-yl)methyl)cyclohexyl)methyl)-2-(1-(phenylsulfonyl)pyrrolidin-3-yloxy)acetamide], the inhibition at 10 µM in experiment [1] (setting [3]) is 3%; in experiment [2] (setting [4]), -11%.
Consider `CN(C)C(c1cccs1)C1CCC(CCNC(=O)COCCN(C)S(=O)(=O)c2ccc(Cl)cc2)CC1` (stereo not drawn) [Example 37, 2-(2-(4-chloro-N-methylphenylsulfonamido)ethoxy)-N-(2-(4-((dimethylamino)(thiophen-2-yl)methyl)cyclohexyl)ethyl)acetamide], for which the inhibition at 10 µM came to 21% in experiment [1] (setting [3]) and 40% in experiment [2] (setting [4]).
With `COc1ccc(S(=O)(=O)N2Cc3ccccc3CC2COCC(=O)NC2CCC(C(c3ccccc3)N(C)C)CC2)cc1` (stereo not drawn) [Example 38, N-(4-((dimethylamino)(phenyl)methyl)cyclohexyl)-2-((2-(4-methoxyphenylsulfonyl)-1,2,3,4-tetrahydroisoquinolin-3-yl)methoxy)acetamide], the figures for the inhibition at 10 µM in experiment [1] (setting [3]) and in experiment [2] (setting [4]) were 46% and 45%, respectively.
`CN(C)C(c1ccccc1)C1CCC(NC(=O)COC2CCCCC2N(C)S(=O)(=O)c2ccc(Cl)c(Cl)c2)CC1` (stereo not drawn) [Example 39, 2-(2-(3,4-dichloro-N-methylphenylsulfonamido)cyclohexyloxy)-N-(4-((dimethylamino)(phenyl)methyl)cyclohexyl)acetamide]: the inhibition at 10 µM was -8% in experiment [1] (setting [3]) and 89% in experiment [2] (setting [4]).
The like results for `CN(C)C(c1cccc(F)c1)C1CCC(CCNC(=O)COCCN(C)S(=O)(=O)c2c(Cl)cccc2Cl)CC1` (stereo not drawn) [Example 41, 2-(2-(2,6-dichloro-N-methylphenylsulfonamido)ethoxy)-N-(2-(4-((dimethylamino)(3-fluorophenyl)methyl)cyclohexyl)ethyl)acetamide] were, in that order, 54% and 91%.
In the case of `CN(C)C(c1cccs1)C1CCC(NC(=O)COC2CCCN(S(=O)(=O)c3ccccc3)C2)CC1` (stereo not drawn) [Example 42, N-(4-((dimethylamino)(thiophen-2-yl)methyl)cyclohexyl)-2-(1-(phenylsulfonyl)piperidin-3-yloxy)acetamide], the inhibition at 10 µM in experiment [1] (CHO-K1, read-out: B1R Ant. r [10 μM] % Inhibition) is -17%; in experiment [2] (CHO-K1, read-out: B1R Ant. h [10 μM] % Inhibition), -14%.
For the compound `COc1cc(C)c(S(=O)(=O)N2CCC(OCC(=O)NC3CCC(C(c4cccs4)N(C)C)CC3)C2)c(C)c1C` (stereo not drawn) [Example 43, N-(4-((dimethylamino)(thiophen-2-yl)methyl)cyclohexyl)-2-(1-(4-methoxy-2,3,6-trimethylphenylsulfonyl)pyrrolidin-3-yloxy)acetamide], the figures for the inhibition at 10 µM in experiment [1] (setting [3]) and in experiment [2] (setting [4]) were 21% and 37%, respectively.
For `COc1cc(C)c(S(=O)(=O)N2CCC(OCC(=O)NCC3CCC(C(c4ccccc4)N(C)C)CC3)C2)c(C)c1C` (stereo not drawn) [Example 44, N-((4-((dimethylamino)(phenyl)methyl)cyclohexyl)methyl)-2-(1-(4-methoxy-2,3,6-trimethylphenylsulfonyl)pyrrolidin-3-yloxy)acetamide] the same measures were 22% and 46%.
With `COc1ccc(S(=O)(=O)N2CCCCC2COCC(=O)NCC2CCC(C(c3cccs3)N(C)C)CC2)cc1` (stereo not drawn) [Example 45, N-((4-((dimethylamino)(thiophen-2-yl)methyl)cyclohexyl)methyl)-2-((1-(4-methoxyphenylsulfonyl)piperidin-2-yl)methoxy)acetamide], the inhibition at 10 µM in experiment [1] (setting [3]) is 65%; in experiment [2] (setting [4]) it was 70%.
For `COc1ccc(S(=O)(=O)N2CCCCC2CCOCC(=O)NCCC2CCC(C(c3cccs3)N(C)C)CC2)cc1` (stereo not drawn) [Example 46, N-(2-(4-((dimethylamino)(thiophen-2-yl)methyl)cyclohexyl)ethyl)-2-(2-(1-(4-methoxyphenylsulfonyl)piperidin-2-yl)ethoxy)acetamide] the same measures were 77% and 86%.
For `COc1ccc(S(=O)(=O)N2Cc3ccccc3CC2COCC(=O)NC2CCC(C(c3cccs3)N(C)C)CC2)cc1` (stereo not drawn) [Example 47, N-(4-((dimethylamino)(thiophen-2-yl)methyl)cyclohexyl)-2-((2-(4-methoxyphenylsulfonyl)-1,2,3,4-tetrahydroisoquinolin-3-yl)methoxy)acetamide] the same measures were 36% and 24%.
On to `COc1ccc(S(=O)(=O)N2Cc3ccccc3CC2COCC(=O)NCCC2CCC(C(c3cccs3)N(C)C)CC2)cc1` (stereo not drawn) [Example 48, N-(2-(4-((dimethylamino)(thiophen-2-yl)methyl)cyclohexyl)ethyl)-2-((2-(4-methoxyphenylsulfonyl)-1,2,3,4-tetrahydroisoquinolin-3-yl)methoxy)acetamide], for which the inhibition at 10 µM in experiment [1] (setting [3]) was 22%; in experiment [2] (setting [4]), 33%.
The like results for `COc1ccc(S(=O)(=O)N2CCCCC2COCC(=O)NCC2CCC(C(c3cccs3)N(C)C)CC2)c(OC)c1` (stereo not drawn) [Example 49, 2-((1-(2,4-dimethoxyphenylsulfonyl)piperidin-2-yl)methoxy)-N-((4-((dimethylamino)(thiophen-2-yl)methyl)cyclohexyl)methyl)acetamide] were, in that order, 23% and 2%.
Turning to `COc1cc(C)c(S(=O)(=O)N(C)CCOCC(=O)NCCC2CCC(C(c3cccs3)N(C)C)CC2)c(C)c1C` (stereo not drawn) [Example 52, N-(2-(4-((dimethylamino)(thiophen-2-yl)methyl)cyclohexyl)ethyl)-2-(2-(4-methoxy-N,2,3,6-tetramethylphenylsulfonamido)ethoxy)acetamide], the inhibition at 10 µM in experiment [1] (setting [3]) amounted to 53%; in experiment [2] (setting [4]), 103%.
Regarding `CN(C)C(c1ccccc1)C1CCC(CNC(=O)COCCN(C)S(=O)(=O)c2ccc(OC(F)(F)F)cc2)CC1` (stereo not drawn) [Example 53, N-((4-((dimethylamino)(phenyl)methyl)cyclohexyl)methyl)-2-(2-(N-methyl-4-(trifluoromethoxy)phenylsulfonamido)ethoxy)acetamide], the inhibition at 10 µM in experiment [1] (setting [3]) was determined as 41%; in experiment [2] (setting [4]) it was 19%.
With `CN(C)C(c1cccs1)C1CCC(CNC(=O)COC2CCN(S(=O)(=O)c3ccc(Cl)cc3)C2)CC1` (stereo not drawn) [Example 54, 2-(1-(4-chlorophenylsulfonyl)pyrrolidin-3-yloxy)-N-((4-((dimethylamino)(thiophen-2-yl)methyl)cyclohexyl)methyl)acetamide], the inhibition at 10 µM in experiment [1] (setting [3]) is -20%; in experiment [2] (setting [4]), 10%.
